{"source": "patent US20060093676A1", "about": "“Ascorbic acid stability” (priority 2002, published 2006)", "origin": "cited, not measured here", "details": "in water", "data": [{"smiles": "O=C1O[C@H]([C@@H](O)CO)C(O)=C1O", "note": "[L-Ascorbic acid]", "values": [{"measurement": "pK of acid-ionizable hydrogen", "value": 4.2}]}]}
